# Measured values published in patent US12551536B2, “Semaglutide in medical therapy” (Novo Nordisk A/S, priority 2017, dated 2026).
# Assays:
# Format in all cases: in vivo, human
# [1] = 26-week clinical trial in adult patients with T2D: gastrointestinal adverse events incl. nausea; details: on-treatment
# Procedure: (§1) A 26-week, randomized, double-blind clinical trial was carried out with adult patients with T2D, HbA1c 7.0-10.0% (53-86 mmol/mol), and body mass index 24.0-40.0 kg/m^2 who were treated with diet and exercise±metformin. […] The primary endpoint was change in HbA1c from baseline to week 26. Key exclusion criteria were a history of chronic or idiopathic acute pancreatitis and moderate-to-severe renal impairment (estimated glomerular filtration rate <60 mL/min/1.73 m^2).
# (§2) Trial drug administration: Following a 2-week screening period, patients received trial medication for 26 weeks, followed by a 7-week follow-up period. […] The trial was double blinded within (but not between) each dose level of semaglutide, liraglutide and placebo, as treatment was volume matched.
# [2] = 52-week clinical trial of once-daily semaglutide in obese subjects without diabetes mellitus: change in body weight; details: for Change in body weight (%) from baseline to week 52, Change (%) Estimate / Change in body weight, Treatment difference (%-points) vs. Lira 3.0 mg / Change in body weight, Treatment difference (%-points) vs. Placebo Pool: ANCOVA, J2R-MI; for Change in body weight (%) from baseline at week 52, Model prediction (Estimate) %: Emax dose-response modelling; for Change in body weight (%) from baseline to week 52, Subjects in-trial, Mean / Change in body weight (%) from baseline to week 52, Subjects on-treatment, Mean: observed data
# Procedure: This trial was designed as a 52-week, randomised, double-blind, placebo-controlled, sixteen-armed, parallel group, multi-centre, multinational trial comparing once-daily subcutaneous administration of semaglutide in five different doses (ranging from 0.05 mg/day to 0.4 mg/day) with placebo in obese subjects without diabetes mellitus. […] The trial was double-blinded between active and placebo treatment. To ensure a sufficiently large sample of men, no more than 70% of the trial population was allowed to be women and the randomisation was stratified according to sex. Subjects were randomised in a balanced manner (6:1 active:placebo).
# The primary endpoint was relative change from baseline in body weight (%) at 52 weeks. Key secondary endpoints included proportion of subjects with weight loss of ≥5% or ≥10% of baseline body weight at 52 weeks as well as change in body weight from baseline to 52 weeks. Supportive secondary safety endpoints also included gastrointestinal (GI) adverse events (i.e. nausea, vomiting, diarrhoea and constipation). During each site visit the individual subject was asked via open questions if they had experienced any medical problems since the last visit. All medical problems either observed by the site staff or the subject was reported as an adverse event and evaluated for severity and causality by the investigator. For this trial the subjects had site visits every 2 weeks for the first 20 weeks of the trial and afterwards site visits was performed every 4 weeks.
# Subjects in all treatment arms including placebo received nutritional counselling and a calorie-reduced diet by a dietician or equivalent qualified delegate as well as physical activity counselling by a qualified person on a monthly basis beginning at the randomisation visit. The trial population consisted of a total of 957 subjects were randomised. A total of 777 subjects (81.2%) completed 52 weeks of treatment; 180 (18.8%) discontinued treatment prematurely with no obvious dose-dependent trend. Key inclusion criteria for this trial were: Male or female, age ≥18 years at the time of signing inform consent; body mass index (BMI)≥30.0 kg/m2 at the screening visit; and at least one unsuccessful weight loss attempt per investigator judgement. Key exclusion criteria for this trial were: A HbA1c≥6.5% at screening or diagnosed with type 1 or type 2 diabetes mellitus; Treatment with glucose lowering agent(s) within 90 days before screening; Screening calcitonin ≥50 ng/L (pg/mL); Personal or family history of medullary thyroid carcinoma or multiple endocrine neoplasia syndrome type 2; History of pancreatitis (acute or chronic); Obesity induced by endocrine disorders (e.g. Cushing Syndrome); Treatment with any medication within 90 days before screening that based on investigator's judgement may cause significant weight change; Previous surgical treatment for obesity (liposuction and/or abdominoplasty performed >1 year before screening is allowed); History of major depressive disorder within 2 years before randomisation; Any lifetime history of a suicidal attempt; and Female who is pregnant, breast-feeding or intends to become pregnant or is of childbearing potential and not using an adequate contraceptive method (adequate contraceptive measures as required by local regulation or practice).
# Statistical analyses of effect endpoints: The primary analysis was based on a ‘jump-to-reference’ multiple imputation approach (J2R-MI). Week 52 data from subjects who discontinued trial product and returned for the visit at week 52 were included in the analysis. First, an imputation model using observed week 52 body weight (kg) measurements from the placebo arm only were estimated. Second, multiple copies (1000) of the full analysis set were generated by imputing missing values in all treatment arms from the imputation model. The primary endpoint was calculated in each complete data set and analysed using an analysis of covariance (ANCOVA) model. […]
# [3] = 26-week clinical trial in adult patients with T2D: body weight change; details: on-treatment, estimated data
# Procedure: as §1, §2
# HbA1c = experiment: 26-week clinical trial in adult patients with T2D: change in HbA1c; details: baseline to week 26
# Procedure: as §1
# Trial drug administration: Following a 2-week screening period, patients received trial medication for 26 weeks, followed by a 7-week follow-up period.
# [4] = Sema 0.05 mg once daily s.c., N 64
# [5] = Sema 0.1 mg once daily s.c., N 63
# [6] = Sema 0.2 mg once daily s.c., N 65
# [7] = Sema 0.3 mg once daily s.c., N 63
# [8] = Sema 0.05 mg once daily s.c., week 52
# [9] = Sema 0.1 mg once daily s.c., week 52
# [10] = Sema 0.2 mg once daily s.c., week 52
# [11] = Sema 0.3 mg once daily s.c., week 52
# [12] = Sema 0.4 mg once daily s.c., week 52
substance,measurement,setting,value
"N^6.26-{18-[N-(17-carboxyheptadecanoyl)-L-γ-glutamyl]-10-oxo-3,6,12,15-tetraoxa-9,18-diazaoctadecanoyl}-[8-(2-amino-2-propanoic acid),34-L-arginine]human glucagon-like peptide 1(7-37) [Sema]","Gastrointestinal adverse events, % (percentage of patients experiencing at least one event)",[1]; Sema 0.05 mg once daily s.c.,32.8%
same,"Gastrointestinal adverse events, E (number of events)",[1]; Sema 0.05 mg once daily s.c.,61
same,"Nausea, % (percentage of patients experiencing at least one event)",[1]; Sema 0.05 mg once daily s.c.,17.2%
same,"Nausea, E (number of events)",[1]; Sema 0.05 mg once daily s.c.,16
same,"Gastrointestinal adverse events, Ne (number of patients experiencing at least one event)",[1]; [4],21
same,"Nausea, Ne (number of patients experiencing at least one event)",[1]; [4],11
same,"Gastrointestinal adverse events, % (percentage of patients experiencing at least one event)",[1]; Sema 0.1 mg once daily s.c.,44.4%
same,"Gastrointestinal adverse events, E (number of events)",[1]; Sema 0.1 mg once daily s.c.,90
same,"Nausea, % (percentage of patients experiencing at least one event)",[1]; Sema 0.1 mg once daily s.c.,19.0%
same,"Nausea, E (number of events)",[1]; Sema 0.1 mg once daily s.c.,20
same,"Gastrointestinal adverse events, Ne (number of patients experiencing at least one event)",[1]; [5],28
same,"Nausea, Ne (number of patients experiencing at least one event)",[1]; [5],12
same,"Gastrointestinal adverse events, % (percentage of patients experiencing at least one event)",[1]; Sema 0.2 mg once daily s.c.,46.2%
same,"Gastrointestinal adverse events, E (number of events)",[1]; Sema 0.2 mg once daily s.c.,106
same,"Nausea, % (percentage of patients experiencing at least one event)",[1]; Sema 0.2 mg once daily s.c.,21.5%
same,"Nausea, E (number of events)",[1]; Sema 0.2 mg once daily s.c.,22
same,"Gastrointestinal adverse events, Ne (number of patients experiencing at least one event)",[1]; [6],30
same,"Nausea, Ne (number of patients experiencing at least one event)",[1]; [6],14
same,"Gastrointestinal adverse events, % (percentage of patients experiencing at least one event)",[1]; Sema 0.3 mg once daily s.c.,54.0%
same,"Gastrointestinal adverse events, E (number of events)",[1]; Sema 0.3 mg once daily s.c.,101
same,"Nausea, % (percentage of patients experiencing at least one event)",[1]; Sema 0.3 mg once daily s.c.,25.4%
same,"Nausea, E (number of events)",[1]; Sema 0.3 mg once daily s.c.,22
same,"Gastrointestinal adverse events, Ne (number of patients experiencing at least one event)",[1]; [7],34
same,"Nausea, Ne (number of patients experiencing at least one event)",[1]; [7],16
same,Corresponding Sema dose (dosage of semaglutide providing the same body weight reduction as 3.0 mg liraglutide),"[2]; Lira 3.0 mg, Emax model, Estimate [95% CI], week 52",0.08 mg
same,"Change in body weight (%) from baseline to week 52, Change (%) Estimate",[2]; Sema 0.05 mg once daily s.c.,−5.99%
same,"Change in body weight, Treatment difference (%-points) vs. Lira 3.0 mg",[2]; [8],1.77 %-points
same,"Change in body weight, Treatment difference (%-points) vs. Placebo Pool",[2]; [8],−3.70 %-points
same,"Change in body weight (%) from baseline at week 52, Model prediction (Estimate) %",[2]; Sema 0.05 mg,−6.19%
same,"Change in body weight (%) from baseline to week 52, Change (%) Estimate",[2]; Sema 0.1 mg once daily s.c.,−8.62%
same,"Change in body weight (%) from baseline to week 52, Subjects in-trial, Mean",[2]; Sema 0.1 mg once daily s.c.,−9.11%
same,"Change in body weight (%) from baseline to week 52, Subjects on-treatment, Mean",[2]; Sema 0.1 mg once daily s.c.,−9.76%
same,"Change in body weight, Treatment difference (%-points) vs. Lira 3.0 mg",[2]; [9],−0.85 %-points
same,"Change in body weight, Treatment difference (%-points) vs. Placebo Pool",[2]; [9],−6.32 %-points
same,"Change in body weight (%) from baseline at week 52, Model prediction (Estimate) %",[2]; Sema 0.1 mg,−8.47%
same,"Change in body weight (%) from baseline to week 52, Change (%) Estimate",[2]; Sema 0.2 mg once daily s.c.,−11.60%
same,"Change in body weight (%) from baseline to week 52, Subjects in-trial, Mean",[2]; Sema 0.2 mg once daily s.c.,−12.54%
same,"Change in body weight (%) from baseline to week 52, Subjects on-treatment, Mean",[2]; Sema 0.2 mg once daily s.c.,−13.68%
same,"Change in body weight, Treatment difference (%-points) vs. Lira 3.0 mg",[2]; [10],−3.83 %-points
same,"Change in body weight, Treatment difference (%-points) vs. Placebo Pool",[2]; [10],−9.31 %-points
same,"Change in body weight (%) from baseline at week 52, Model prediction (Estimate) %",[2]; Sema 0.2 mg,−11.00%
same,"Change in body weight (%) from baseline to week 52, Change (%) Estimate",[2]; Sema 0.3 mg once daily s.c.,−11.17%
same,"Change in body weight (%) from baseline to week 52, Subjects in-trial, Mean",[2]; Sema 0.3 mg once daily s.c.,−12.06%
same,"Change in body weight (%) from baseline to week 52, Subjects on-treatment, Mean",[2]; Sema 0.3 mg once daily s.c.,−12.97%
same,"Change in body weight, Treatment difference (%-points) vs. Lira 3.0 mg",[2]; [11],−3.41 %-points
same,"Change in body weight, Treatment difference (%-points) vs. Placebo Pool",[2]; [11],−8.88 %-points
same,"Change in body weight (%) from baseline at week 52, Model prediction (Estimate) %",[2]; Sema 0.3 mg,−12.37%
same,"Change in body weight (%) from baseline to week 52, Change (%) Estimate",[2]; Sema 0.4 mg once daily s.c.,−13.84%
same,"Change in body weight (%) from baseline to week 52, Subjects in-trial, Mean",[2]; Sema 0.4 mg once daily s.c.,−13.96%
same,"Change in body weight (%) from baseline to week 52, Subjects on-treatment, Mean",[2]; Sema 0.4 mg once daily s.c.,−16.17%
same,"Change in body weight, Treatment difference (%-points) vs. Lira 3.0 mg",[2]; [12],−6.08 %-points
same,"Change in body weight, Treatment difference (%-points) vs. Placebo Pool",[2]; [12],−11.55 %-points
same,"Change in body weight (%) from baseline at week 52, Model prediction (Estimate) %",[2]; Sema 0.4 mg,−13.24%
same,"Change in body weight (%) from baseline to week 52, Subjects in-trial, Mean",[2]; Sema 0.5 mg once daily s.c.,−6.33%
same,"Change in body weight (%) from baseline to week 52, Subjects on-treatment, Mean",[2]; Sema 0.5 mg once daily s.c.,−6.79%
same,"Body weight change, mean (kg), baseline to week 26",[3]; Sema 0.05 mg once daily s.c.,-2.8 kg
same,"Body weight change, mean (kg), baseline to week 26",[3]; Sema 0.1 mg once daily s.c.,-4.3 kg
same,"Body weight change, mean (kg), baseline to week 26",[3]; Sema 0.2 mg once daily s.c.,-6.7 kg
same,"Body weight change, mean (kg), baseline to week 26",[3]; Sema 0.3 mg once daily s.c.,-8.2 kg
same,Mean Change in HbA1c % (SD),HbA1c; Sema 0.05 mg once daily s.c.,−0.97 (0.85) %
same,Mean Change in HbA1c % (SD),HbA1c; Sema 0.1 mg once daily s.c.,−1.30 (1.03) %
same,Mean Change in HbA1c % (SD),HbA1c; Sema 0.2 mg once daily s.c.,−1.65 (0.79) %
same,Mean Change in HbA1c % (SD),HbA1c; Sema 0.3 mg once daily s.c.,−1.96 (0.95) %
